{"source": "patent US11807649B2", "about": "“Fused tetracyclic quinazoline derivatives as inhibitors of ErbB2” (EnLiven Therapeutics, Inc., priority 2021, dated 2023)"}
{"tested_on": "Ba/F3 ERBB2 YVMA", "assay": "Cell viability assay (CellTiter Glo), Ba/F3 cells engineered to express ERBB2 YVMA", "type": "cell-based", "conditions": "Mus musculus, BaF3, 72 h, Ba/F3 cells expressing human ERBB2 YVMA mutant; 72 hours; cell viability, CellTiter Glo; read-out: Ba/F3 ERBB2 YVMA, IC50", "protocol": "Cells were treated with compounds, and cell viability was measured as a metric of kinase inhibition.\nBT-474, A431, MDA-MB-175VII, NCI-H1781, MCF7, and Ba/F3 cell lines were tested. The Ba/F3 cell line is IL-3-dependent mouse cell line derived from the C3H mouse strain. Ba/F3 cell lines were engineered to express human ERBB2 or EGFR kinases, rendering the cells IL-3 independent. The lines were generated via retroviral transduction utilizing a Moloney murine leukemia virus (MMLV) promoter, and constructs are stably integrated into the cell genome. The sequences of the ERBB2 and EGFR genes used were NCBI Reference Sequences NM 004448.3 and NM 005228.3, respectively.\nBT-474, A431, MDA-MB-175VII, NCI-H1781 and MCF7 cells were grown in the appropriate growth medium as described in Table B2 below, and harvested at 50-80% confluence. BT-474, A431, MDA-MB-175VII, NCI-H1781 and MCF7 cells were counted and seeded at 2,000 or 1,500 cells per well in 384-well tissue culture plates (see Table B2). Similarly, Ba/F3 cell lines engineered to express EGFR, ERBB2, or ERBB2 mutants were grown, harvested, counted and seeded at 3000 cells per well in 96-well plates. A subset of wells contained media only (low control, “LC”).\nTable B1 provides the growth media and number of cells seeded per well for the each cell line.\nCompounds were dissolved in DMSO and serially diluted. Serially-diluted compound or a DMSO only control (high control, “HC”) was added to the plated cells in each well. Compounds were tested at concentrations of about 10 μM to 0.51 nM, using three-fold dilutions. The final proportion of DMSO never exceeded 0.1%.\nPlates were placed in a 37° C., 5% CO2 incubator for 72 hours. Plates were then removed from the incubator and equilibrated for 15 minutes at room temperature. […] of CellTiter Glo reagent (Promega) was added to measure the relative level of metabolically active cells by quantifying intracellular ATP concentrations. Plates were incubated for 30 minutes at room temperature, and luminescence was measured. Percent viability was normalized to a vehicle control only using the following formula: % viability=100×(Lumsample−LumLC)/(LumHC−LumLC). Graphical curves were fitted using a nonlinear regression model with a sigmoidal dose response.", "units": {"IC50": "nM"}}
{"smiles": "CC#CC(=O)N1CCN2C[C@@H]1COc1cc3ncnc(Nc4ccc(Oc5ccn6ncnc6c5)c(C)c4)c3cc12", "note": "[Compound 17, 1-((10R)-4-((4-([1,2,4]triazolo[1,5-a]pyridin-7-yloxy)-3-methylphenyl)amino)-7,8,10,11-tetrahydro-9H-6,10-methano[1,4,7]oxadiazonino[3,2-g]quinazolin-9-yl)but-2-yn-1-one]", "IC50": "> 500"}
{"smiles": "CC#CC(=O)N1CCN2C[C@H]1COc1cc3ncnc(Nc4ccc(Oc5ccn6ncnc6c5)c(C)c4)c3nc12", "note": "[Compound 18, 1-((10S)-4-((4-([1,2,4]triazolo[1,5-a]pyridin-7-yloxy)-3-methylphenyl)amino)-7,8,10,11-tetrahydro-9H-6,10-methanopyrimido[4′,5′:5,6]pyrido[3,2-b][1,4,7]oxadiazonin-9-yl)but-2-yn-1-one]", "IC50": 21.6}
{"smiles": "Cc1ccc(Oc2ccc(Nc3ncnc4cc5c(nc34)N3CCN(C(=O)/C=C/CN(C)C)[C@H](CO5)C3)cc2C)cn1", "note": "[Compound 21, (E)-4-(dimethylamino)-1-((10S)-4-((3-methyl-4-((6-methylpyridin-3-yl)oxy)phenyl)amino)-7,8,10,11-tetrahydro-9H-6,10-methanopyrimido[4′,5′:5,6]pyrido[3,2-b][1,4,7]oxadiazonin-9-yl)but-2-en-1-one]", "IC50": 5.23}
{"smiles": "C=C(F)C(=O)N1CCN2C[C@H]1COc1cc3ncnc(Nc4ccc(Oc5ccn6ncnc6c5)c(C)c4)c3nc12", "note": "[Compound 23, 1-((10S)-4-((4-([1,2,4]triazolo[1,5-a]pyridin-7-yloxy)-3-methylphenyl)amino)-7,8,10,11-tetrahydro-9H-6,10-methanopyrimido[4′,5′:5,6]pyrido[3,2-b][1,4,7]oxadiazonin-9-yl)-2-fluoroprop-2-en-1-one]", "IC50": 222}
{"smiles": "Cc1cc(Nc2ncnc3cc4c(nc23)N2CCN(C(=O)/C=C/CN(C)C)[C@H](CO4)C2)c(F)cc1Oc1ccn2ncnc2c1", "note": "[Compound 24, (E)-1-((10S)-4-((4-([1,2,4]triazolo[1,5-a]pyridin-7-yloxy)-2-fluoro-5-methylphenyl)amino)-7,8,10,11-tetrahydro-9H-6,10-methanopyrimido[4′,5′:5,6]pyrido[3,2-b][1,4,7]oxadiazonin-9-yl)-4-(dimethylamino)but-2-en-1-one]", "IC50": 6.4}
{"smiles": "Cc1cc(Nc2ncnc3cc4c(nc23)N2CCN(C(=O)/C=C/CN(C)C)[C@H](CO4)C2)ccc1Oc1cccnc1", "note": "[Compound 25, (E)-4-(dimethylamino)-1-((10S)-4-((3-methyl-4-(pyridin-3-yloxy)phenyl)amino)-7,8,10,11-tetrahydro-9H-6,10-methanopyrimido[4′,5′:5,6]pyrido[3,2-b][1,4,7]oxadiazonin-9-yl)but-2-en-1-one]", "IC50": 2.02}
{"smiles": "Cc1cc(Nc2ncnc3cc4c(nc23)N2CCN(C(=O)/C=C/[C@H]3CCCN3C)[C@H](CO4)C2)ccc1Oc1ccn2ncnc2c1", "note": "[Compound 27, (E)-1-((10S)-4-((4-([1,2,4]triazolo[1,5-a]pyridin-7-yloxy)-3-methylphenyl)amino)-7,8,10,11-tetrahydro-9H-6,10-methanopyrimido[4′,5′:5,6]pyrido[3,2-b][1,4,7]oxadiazonin-9-yl)-3-((R)-1-methylpyrrolidin-2-yl)prop-2-en-1-one]", "IC50": 10.6}
{"smiles": "Cc1cc(Nc2ncnc3cc4c(nc23)N2CCN(C(=O)/C=C/[C@@H]3CCCN3C)[C@H](CO4)C2)ccc1Oc1ccn2ncnc2c1", "note": "[Compound 28, (E)-1-((10S)-4-((4-([1,2,4]triazolo[1,5-a]pyridin-7-yloxy)-3-methylphenyl)amino)-7,8,10,11-tetrahydro-9H-6,10-methanopyrimido[4′,5′:5,6]pyrido[3,2-b][1,4,7]oxadiazonin-9-yl)-3-((S)-1-methylpyrrolidin-2-yl)prop-2-en-1-one]", "IC50": 6.84}
{"smiles": "Cc1cc(Nc2ncnc3cc4c(nc23)N2CCN(C(=O)/C=C/[C@@H](C)N(C)C)[C@H](CO4)C2)ccc1Oc1ccn2ncnc2c1", "note": "[Compound 29, (4R,E)-1-((10S)-4-((4-([1,2,4]triazolo[1,5-a]pyridin-7-yloxy)-3-methylphenyl)amino)-7,8,10,11-tetrahydro-9H-6,10-methanopyrimido[4′,5′:5,6]pyrido[3,2-b][1,4,7]oxadiazonin-9-yl)-4-(dimethylamino)pent-2-en-1-one]", "IC50": 19.6}
{"smiles": "CN(C)C/C=C/C(=O)N1CCN2C[C@H]1COc1cc3ncnc(Nc4ccc(Oc5ccn6ncnc6c5)cc4)c3nc12", "note": "[Compound 31, (E)-1-((10S)-4-((4-([1,2,4]triazolo[1,5-a]pyridin-7-yloxy)phenyl)amino)-7,8,10,11-tetrahydro-9H-6,10-methanopyrimido[4′,5′:5,6]pyrido[3,2-b][1,4,7]oxadiazonin-9-yl)-4-(dimethylamino)but-2-en-1-one]", "IC50": 19.9}
{"smiles": "CN(C)C/C=C/C(=O)N1CCN2C[C@H]1COc1cc3ncnc(Nc4ccc(Oc5ccn6ncnc6c5)c(Cl)c4)c3nc12", "note": "[Compound 32, (E)-1-((10S)-4-((4-([1,2,4]triazolo[1,5-a]pyridin-7-yloxy)-3-chlorophenyl)amino)-7,8,10,11-tetrahydro-9H-6,10-methanopyrimido[4′,5′:5,6]pyrido[3,2-b][1,4,7]oxadiazonin-9-yl)-4-(dimethylamino)but-2-en-1-one]", "IC50": 4.54}
{"smiles": "Cc1cc(Nc2ncnc3cc4c(nc23)N2CCN(C(=O)/C=C/CN(C)C)[C@H](CO4)C2)ccc1Oc1ccn2ccnc2c1", "note": "[Compound 34, (E)-4-(dimethylamino)-1-((10S)-4-((4-(imidazo[1,2-a]pyridin-7-yloxy)-3-methylphenyl)amino)-7,8,10,11-tetrahydro-9H-6,10-methanopyrimido[4′,5′:5,6]pyrido[3,2-b][1,4,7]oxadiazonin-9-yl)but-2-en-1-one]", "IC50": 7.18}
{"smiles": "Cc1c(Oc2ccn3ncnc3c2)ccc(Nc2ncnc3cc4c(nc23)N2CCN(C(=O)/C=C/CN(C)C)[C@H](CO4)C2)c1F", "note": "[Compound 35, (E)-1-((10S)-4-((4-([1,2,4]triazolo[1,5-a]pyridin-7-yloxy)-2-fluoro-3-methylphenyl)amino)-7,8,10,11-tetrahydro-9H-6,10-methanopyrimido[4′,5′:5,6]pyrido[3,2-b][1,4,7]oxadiazonin-9-yl)-4-(dimethylamino)but-2-en-1-one]", "IC50": 1.29}
{"smiles": "CN(C)C/C=C/C(=O)N1CCN2C[C@H]1COc1cc3ncnc(Nc4ccc(Oc5ccn6ncnc6c5)c(F)c4)c3nc12", "note": "[Compound 39, (E)-1-((10S)-4-((4-([1,2,4]triazolo[1,5-a]pyridin-7-yloxy)-3-fluorophenyl)amino)-7,8,10,11-tetrahydro-9H-6,10-methanopyrimido[4′,5′:5,6]pyrido[3,2-b][1,4,7]oxadiazonin-9-yl)-4-(dimethylamino)but-2-en-1-one]", "IC50": 5.54}
{"smiles": "Cc1cc(Nc2ncnc3cc4c(c(F)c23)N2CCN(C(=O)/C=C/CN(C)C)[C@H](CO4)C2)ccc1Oc1ccn2ncnc2c1", "note": "[Compound 40, (E)-1-((10S)-4-((4-([1,2,4]triazolo[1,5-a]pyridin-7-yloxy)-3-methylphenyl)amino)-5-fluoro-7,8,10,11-tetrahydro-9H-6,10-methano[1,4,7]oxadiazonino[3,2-g]quinazolin-9-yl)-4-(dimethylamino)but-2-en-1-one]", "IC50": 29.4}
{"smiles": "Cc1cc(Nc2ncnc3cc4c(nc23)N2CCN(C(=O)/C=C/[C@H]3CCCN3C)[C@H](CO4)C2)c(F)cc1Oc1ccn2ncnc2c1", "note": "[Compound 41, (E)-1-((10S)-4-((4-([1,2,4]triazolo[1,5-a]pyridin-7-yloxy)-2-fluoro-5-methylphenyl)amino)-7,8,10,11-tetrahydro-9H-6,10-methanopyrimido[4′,5′:5,6]pyrido[3,2-b][1,4,7]oxadiazonin-9-yl)-34-((R)-1-methylpyrrolidin-2-yl)prop-2-en-1-one]", "IC50": 8.67}
{"smiles": "CN(C)C/C=C/C(=O)N1CCN2C[C@H]1COc1cc3ncnc(Nc4ccc(Oc5ccn6ncnc6c5)cc4F)c3nc12", "note": "[Compound 42, (E)-1-((10S)-4-((4-([1,2,4]triazolo[1,5-a]pyridin-7-yloxy)-2-fluorophenyl)amino)-7,8,10,11-tetrahydro-9H-6,10-methanopyrimido[4′,5′:5,6]pyrido[3,2-b][1,4,7]oxadiazonin-9-yl)-4-(dimethylamino)but-2-en-1-one]", "IC50": 10.3}
{"smiles": "CN(C)C/C=C/C(=O)N1CCN2C[C@H]1COc1cc3ncnc(Nc4cc(Cl)c(Oc5ccn6ncnc6c5)cc4F)c3nc12", "note": "[Compound 43, (E)-1-((10S)-4-((4-([1,2,4]triazolo[1,5-a]pyridin-7-yloxy)-5-chloro-2-fluorophenyl)amino)-7,8,10,11-tetrahydro-9H-6,10-methanopyrimido[4′,5′:5,6]pyrido[3,2-b][1,4,7]oxadiazonin-9-yl)-4-(dimethylamino)but-2-en-1-one]", "IC50": 4.65}
{"smiles": "Cc1cc(Nc2ncnc3cc4c(nc23)N2CCN(C(=O)/C=C/CN(C)C)[C@H](CO4)C2)c(F)cc1Oc1cncc(F)c1", "note": "[Compound 44]", "IC50": 9.18}
